# Several values for one entry are separate records, joined by “and”; a condition that tells them apart may be missing. Identical values can stand only once. Entries after “also recorded” stand apart in the source; their conditions may differ.
# Legend:
# [1] = system: murine breast cancer cell line derived from Kras* mice; test: MTT cell growth assay on a Kras* breast cancer cell line; format: cell-based, mouse; conditions: for MTT colorimetric reading reflecting cell density, Day 2, Average / MTT colorimetric reading reflecting cell density, Day 2, individual duplicate wells / Inhibition of growth of the Kras* breast cancer cell line (in words): 500 nM, 48 h; for MTT colorimetric reading reflecting cell density, Day 2, Average: average of duplicates, Day 0 0.3675, no drug 0.792; for MTT colorimetric reading reflecting cell density, Day 2, individual duplicate wells: wells 1 and 2, Day 0 0.373/0.362, no drug 0.959/0.625
# Experimental: A murine breast cancer cell line derived from Kras* mice was used to assay the effect of IGF1RK inhibitors. Approximately 30,000 cells/well were plated in a 24-well plate which corresponds to 20% confluence. The next day (Day 0 for the experiment) two of wells were treated with MTT (Thiazol Blue Tetrazolium), a substrate used in a colorimetric metabolic assay that reflects cell density. […] Forty-eight hours later the duplicate wells were assayed.
# [2] = system: Kras*-induced mammary carcinomas; test: Drug treatment of Kras*-induced mouse mammary carcinomas; format: in vivo; conditions: for Tumor volume per gland (Table 10) / Tumor volume per gland: Mean ± S.E.M.; for Tumor volume per gland (Table 10): pooled vehicle controls 243.3 ± 68.9 (9 mice); for Potency relative to PPP against Kras*-induced mammary carcinomas: from % tumor volume versus control; for Tumor volume per gland, % of pooled vehicle control (Table 10): pooled vehicle control = 100; for Macroscopic and histopathological effect on tumors and tumor components (in words): 3 weeks of treatment; for Tumor volume per gland / Tumor volume per gland, % of control (vehicle): i.p. once daily for 3 weeks, PPP 30 mg/kg, Erlotinib 50 mg/kg; for Tumor volume per gland: vehicle 217.8 ± 65.6; for Tumor volume per gland, % of control (vehicle): vehicle = 100
# Experimental: (§1) Details of the preclinical trial using picropodophyllin synthesized as described (Buchardt O, et al. J. Pharm. Sci. (1986), 75:1076-1080) and Erlotinib (purchased from Hwasun Biotechnology Co) are described in Results. The drugs were dissolved in DMSO and cremophor (9:1) and injected intraperitoneally. To calculate tumor volumes, the formula for a prolate spheroid (π/6×a×b2 or ˜a×b2/2, where a and b are the major and minor axis, respectively) was used. The lengths of axes were determined microscopically from sections of tumor nodules using a computer assisted morphometry system (SpotAdvanced VS. 4.0.1, Nikon Eclipse E400). For xenograft experiments, 5×10^6 MDA-MB-231 cells were injected bilaterally into the fat pads of mammary glands 3 and 4 of female SCID/NOD mice. […] For in vitro experiments, MDA-MB-231 cells were grown in DMEM supplemented with 10% fetal bovine serum. […] Cell viability (duplicates) was measured on days 2, 4 and 6 by using the Thiazolyl Blue Tetrazolium Bromide (MTT) colorimetric assay (Mosmann T, J. Immunol. Methods (1983), 65:55-63).
# First, the tumors developing in each gland tended to be multifocal and uneven, and progressively coalesced into larger masses precluding reliable evaluation.
# After 21 days of treatment, the mice are sacrificed, weighed, and the initial tumors measured individually. In addition, tumors which were not palpable at the time of initial palpation, but had grown during the therapy period, are also isolated.
# The efficacy of compounds 18 “(NB3)” and 21 “(NB6)” to ameliorate Kras*-induced mouse mammary carcinomas was tested. While testing NB3 and NB6 (4 mice each), 2 controls were added (2 tumor-bearing mice treated with vehicle).
# [3] = system: Kras*-induced mammary carcinomas; test: as above; format: in vivo
# MDA-MB-231 cells [4] = test: MDA-MB-231 in vitro cell viability (MTT assay); format: cell-based, human; conditions: PPP 500 nM; MTT on days 2, 4 and 6
# From the text: FIG. 8A-C. In vitro inhibition of Igf1r action. Representative experiments of pharmacological inhibition of IGF1R in MDA-MB-231 cells by picropodophyllin (A) or by IGF1R knockdown using a dominant-negative construct (B) or siRNA (C). The absorbance (mean values±S.E.M.) reflects cell numbers estimated from duplicate samples using the MTT assay (see Experimental Procedures). […] (B) Plasmid 486Stop (encoding dominant-negative IGF1R) or a control plasmid (pcDNA3) were introduced in MDA-MB-231 cells by nucleofection following the manufacturer's protocol (1.5 μg of plasmid DNA per […]; Amaxa Biosystems). The same method was used to introduce into these cells a 19-bp RNA duplex (R4) targeting IGR1R mRNA or a scrambled control duplex (Scr4; see SI Materials and Methods, for details). […]
# Details of the preclinical trial using picropodophyllin synthesized as described (Buchardt O, et al. J. Pharm. Sci. (1986), 75:1076-1080) and Erlotinib (purchased from Hwasun Biotechnology Co) are described in Results. […] The lengths of axes were determined microscopically from sections of tumor nodules using a computer assisted morphometry system (SpotAdvanced VS. 4.0.1, Nikon Eclipse E400). […] Cell viability (duplicates) was measured on days 2, 4 and 6 by using the Thiazolyl Blue Tetrazolium Bromide (MTT) colorimetric assay (Mosmann T, J. Immunol. Methods (1983), 65:55-63).
# [5] = molecular target: T1, human Insulin-like Growth Factor I Receptor Kinase (IGF1 RK) domain (Homo sapiens, UniProt P08069); conditions: background statement; cited from earlier work
# T1 construct: human Insulin-like Growth Factor I Receptor Kinase (IGF1 RK) domain
# MDA-MB-231 cells [6] = test: MDA-MB-231 orthotopic xenografts in SCID/NOD mice; format: in vivo, human
# Experimental: as §1
# Nevertheless, in conjunction with the mouse data, these observations provide strong justification for further evaluations of the drug against human breast cancer.
# insulin receptor = insulin receptor (Homo sapiens, UniProt P06213); conditions: Girnita 2004; Vasilcanu 2008; cited from earlier work
# Sequence of insulin receptor (P06213 28-1382, species assumed): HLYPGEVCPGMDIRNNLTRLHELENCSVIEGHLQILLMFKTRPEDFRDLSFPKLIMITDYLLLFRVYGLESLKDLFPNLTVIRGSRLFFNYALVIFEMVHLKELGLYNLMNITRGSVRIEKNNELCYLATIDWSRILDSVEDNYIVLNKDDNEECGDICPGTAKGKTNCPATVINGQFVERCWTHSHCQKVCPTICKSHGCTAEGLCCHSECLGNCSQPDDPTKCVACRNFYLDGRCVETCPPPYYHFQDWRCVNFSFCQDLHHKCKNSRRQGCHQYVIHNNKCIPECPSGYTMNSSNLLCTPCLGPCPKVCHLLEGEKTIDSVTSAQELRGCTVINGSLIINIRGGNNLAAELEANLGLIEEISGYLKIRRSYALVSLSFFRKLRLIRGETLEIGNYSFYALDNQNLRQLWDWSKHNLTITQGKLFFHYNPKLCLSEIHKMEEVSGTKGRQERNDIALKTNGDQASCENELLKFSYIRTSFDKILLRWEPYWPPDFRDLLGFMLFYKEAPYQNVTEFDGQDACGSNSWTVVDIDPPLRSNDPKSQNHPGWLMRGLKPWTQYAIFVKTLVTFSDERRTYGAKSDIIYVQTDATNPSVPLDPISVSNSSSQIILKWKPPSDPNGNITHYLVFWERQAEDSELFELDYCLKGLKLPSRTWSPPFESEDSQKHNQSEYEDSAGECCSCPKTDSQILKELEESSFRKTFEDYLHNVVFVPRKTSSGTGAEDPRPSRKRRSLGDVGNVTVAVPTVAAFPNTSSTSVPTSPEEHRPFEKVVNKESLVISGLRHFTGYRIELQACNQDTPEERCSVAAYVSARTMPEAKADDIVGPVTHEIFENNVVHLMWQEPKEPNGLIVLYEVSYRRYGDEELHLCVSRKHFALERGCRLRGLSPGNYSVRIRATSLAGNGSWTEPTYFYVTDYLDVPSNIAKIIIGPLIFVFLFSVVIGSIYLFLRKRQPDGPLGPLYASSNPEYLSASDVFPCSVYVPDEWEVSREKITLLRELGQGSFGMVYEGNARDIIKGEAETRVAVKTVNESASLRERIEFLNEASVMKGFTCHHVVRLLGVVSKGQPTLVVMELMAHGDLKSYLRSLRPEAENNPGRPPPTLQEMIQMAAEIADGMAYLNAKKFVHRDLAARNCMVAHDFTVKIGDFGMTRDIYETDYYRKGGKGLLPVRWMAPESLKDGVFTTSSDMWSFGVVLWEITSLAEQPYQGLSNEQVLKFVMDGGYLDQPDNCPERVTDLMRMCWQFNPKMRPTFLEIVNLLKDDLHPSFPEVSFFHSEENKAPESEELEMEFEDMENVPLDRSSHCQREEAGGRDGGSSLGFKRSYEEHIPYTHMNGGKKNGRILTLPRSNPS
# T1 sequence (P08069 999-1274 limits assumed): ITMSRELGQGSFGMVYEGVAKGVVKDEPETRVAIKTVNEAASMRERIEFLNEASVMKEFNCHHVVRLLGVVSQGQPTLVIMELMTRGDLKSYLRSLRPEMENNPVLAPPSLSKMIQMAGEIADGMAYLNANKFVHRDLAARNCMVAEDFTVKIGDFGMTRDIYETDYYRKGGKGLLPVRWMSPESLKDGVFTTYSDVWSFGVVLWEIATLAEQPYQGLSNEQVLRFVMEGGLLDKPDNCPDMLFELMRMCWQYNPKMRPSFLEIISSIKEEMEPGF
Structure (SMILES),"MTT colorimetric reading reflecting cell density, Day 2, Average [1]","MTT colorimetric reading reflecting cell density, Day 2, individual duplicate wells [1]",Tumor volume per gland (Table 10) [2] [mm^3],Potency relative to PPP against Kras*-induced mammary carcinomas [2],"Tumor volume per gland, % of pooled vehicle control (Table 10) [2] [%]",Macroscopic and histopathological effect on tumors and tumor components (in words) [2],Tumor volume per gland [2] [mm^3],"Tumor volume per gland, % of control (vehicle) [2]",Inhibition of growth of the Kras* breast cancer cell line (in words) [1],also measured
"COc1cc(OC)cc([C@@H]2c3cc4c(cc3[C@H](O)C3COC(=O)[C@H]32)OCO4)c1 (stereo partly drawn) [Compound 21, 4′-Demethoxy-(−)-picropodophyllin]",0.4845,0.505 and 0.464,2.1 ± 1.0,7 times,0.9,–,–,–,–,–
"COc1cc([C@@H]2c3cc4c(cc3[C@H](O)C3COC(=O)[C@H]32)OCO4)cc(OC)c1OC (single isomer, unassigned; (-)) [PPP, (−)-picropodophyllin]",0.4775,0.478 and 0.477,–,–,–,marked reduction or even absence of the pale and squamous cell components; also recorded: dramatically smaller; also recorded: diminishes the size of pale cell tumors,16.0 ± 9.1,~7% and 7.3%,–,"Increase in apoptosis in the pale component (activated caspase 3 immunohistochemistry) versus vehicle ([3]; 3 days of administration): ~9 fold; Proliferation (proliferation indices) in tumors ([3]; 3 days of treatment): at control levels; In vitro viability of MDA-MB-231 cells (in words) (MDA-MB-231 cells [4]): drastically reduced; Effect on IGF1 RK kinase activity (in words) [5]: inhibits its kinase activity; Tumor volume per gland, xenografts (MDA-MB-231 cells [6]; Mean ± S.E.M., SCID/NOD mice, PPP i.p. for 3 weeks, vehicle 304 ± 40.8): 215 ± 18.6 mm^3; Xenograft tumor growth versus vehicle-treated controls (in words) (MDA-MB-231 cells [6]; NOD/SCID mice, orthotopically injected MDA-MB-231 cells): attenuated; Tumor volume per gland, xenografts, % of vehicle (MDA-MB-231 cells [6]; SCID/NOD mice, PPP i.p. for 3 weeks, vehicle = 100): 70.7%; Total tumor volume per mouse ([2]; after 21 days of daily treatment, vehicle 653±219, p=0.05): 54±28 mm^3; % tumor volume in comparison with the control, normalized to the new control data ([2]; previous PPP value re-normalized to pooled vehicle control): 6.5%; Effect on the homologous insulin receptor (in words) (insulin receptor): not affected"
"COc1cccc([C@@H]2c3cc4c(cc3[C@H](O)C3COC(=O)[C@H]32)OCO4)c1 (stereo partly drawn) [Compound 18, 4′,5′-Didemethoxy-(−)-picropodophyllin]",0.5245,0.483 and 0.566,20.9 ± 10.8,same potency as PPP,6.5,–,–,–,as effective as PPP,"IC50 ([1]; Mus musculus, read-out: IC50 for growth inhibition of Kras* breast cancer cell line): ~400 nM"
"COc1ccc([C@@H]2c3cc4c(cc3[C@H](O)C3COC(=O)[C@H]32)OCO4)cc1 (stereo partly drawn) [Compound 19, 3′,5′-Didemethoxy-(−)-picropodophyllin]",–,–,–,–,–,–,–,–,essentially no activity,–
C#Cc1cccc(Nc2ncnc3cc(OCCOC)c(OCCOC)cc23)c1 [Erlotinib],–,–,–,–,–,reduced predominantly the pale cell component,66.9 ± 29.3,30.7%,–,–

# Reference: US8859614B2 (University of Nebraska—Lincoln, priority 2008, dated 2014)
